According to publication PMC12040169 (PLOS Biology, 2025):

Experiment: in vitro
Conditions: human, hela cells, % viability

In order of falling viability at 28.5 h, 10 µM:
1. CN(C)[C@@H]1CN(Cc2cccnc2)C[C@H]1c1cn(C)c2ccccc12 [CBK284875]  110%
2. O=C(c1cccc(F)c1)N1CCC(c2n[nH]c3ncccc23)CC1 [CBK284907]  109%
3. O=C(CCn1c(C(F)(F)F)cc2cccnc21)NCc1cccnc1 [CBK284865]  106%
4. CC(=O)N1C2CCC1CC(O)(Cn1ccc3ccnc(Cl)c31)C2 (stereo not drawn) [CBK284868]  106%
5. Cn1ncc(Cl)c1C1CCCCCN1C(=O)c1ccco1 (stereo not drawn) [CBK284915]  104%
6. CN1C[C@]2(CC[C@@H](C(=O)N3CCCC3)CC2)Oc2ccccc2C1=O [CBK284886]  103%
7. O=C1NCC2(CCCN(C(=O)c3cccs3)C2)Oc2ccccc21 (stereo not drawn) [CBK284900]  102%
8. Cn1ccc(C2CCCCCN2C(=O)c2c(Cl)cnn2C)n1 (stereo not drawn) [CBK284914]  102%
9. CN1CCCc2cc(CN3CCC4(CCCNC4=O)CC3)ccc21 [CBK284876]  101%
10. O=C(c1cccnc1)N1CCC(c2cc3ccccc3cn2)CC1 [CBK284891]  101%
11. CC1CCN(C(=O)C2C3CCC4(CC(=O)c5ccccc5O4)C32)CC1 (stereo not drawn) [CBK284872]  98.7%
12. O=C1CC2(CCC3C(C(=O)NC4CCCC4)C32)Oc2ccccc21 (stereo not drawn) [CBK284922]  97.6%
13. O=C(CCn1c(C(F)(F)F)cc2cccnc21)N1CCOCC1 [CBK284869]  96.4%
14. Fc1ccc(CN2CCC(c3n[nH]c4ncccc34)CC2)cc1 [CBK284902]  96.2%
15. O=C1NCCCC12CCN(Cc1ccccc1N1CCCCC1)CC2 [CBK284878]  95.5%
16. CCNC(=O)[C@H]1CC[C@]2(CC1)CNC(=O)c1cc(Cl)ccc1O2 [CBK284890]  95.4%
17. O=C1NCC2(CCCN(Cc3ccccc3F)C2)Oc2ccccc21 (stereo not drawn) [CBK284901]  95%
18. Cn1nc(C2CCN(C(=O)c3cccc(F)c3)CC2)c2cccnc21 [CBK284898]  94%
19. CN1CCN(C(=O)CCn2c(C(F)(F)F)cc3cccnc32)CC1 [CBK284896]  93.7%
20. CC1CCc2n[nH]c(C(=O)N3CCc4ncc(Cl)cc4C3)c2C1 (stereo not drawn) [CBK284874]  93.6%
21. Cc1ccc2c(c1)C(NC(=O)C1CC1)CC1(CCOCC1)O2 (stereo not drawn) [CBK284879]  93.4%
22. Cc1noc(C)c1C(=O)N1CCCCCC1c1c(Cl)cnn1C (stereo not drawn) [CBK284918]  93.3%
23. O=C1CN(C(=O)CCn2c(C(F)(F)F)cc3cccnc32)CCN1 [CBK284888]  92.8%
24. CN(C)C(=O)[C@H]1CC[C@]2(CC1)CNC(=O)c1ccccc1O2 [CBK284894]  92.7%
25. Cn1cc(NC(=O)CCn2c(C(F)(F)F)cc3cccnc32)cn1 [CBK284866]  92.5%
26. CCOC(=O)[C@H]1CC[C@]2(CC1)CNC(=O)c1ccccc1O2 [CBK284893]  92.5%
27. Cc1ccsc1C(=O)N1CCC(c2n[nH]c3ncccc23)CC1 [CBK284910]  92.2%
28. O=C1NCCCC12CCN(Cc1cccc(F)c1F)CC2 [CBK284877]  91.8%
29. O=C(c1cc[nH]n1)N1CCC(c2cc3ccccc3cn2)CC1 [CBK284892]  91.7%
30. Cc1ccc(C(=O)N2CCC(c3n[nH]c4ncccc34)CC2)s1 [CBK284911]  90.8%
31. Cc1cc(C[C@@H]2COC[C@H]2NCc2cccc(Cl)c2)on1 [CBK284885]  89.9%
32. CCOC(=O)C1(Cc2cc(-c3cccc(F)c3)no2)CCNCC1 [CBK284881]  89.4%
33. O=C(c1cc(F)cc(F)c1)N1CCC(c2n[nH]c3ncccc23)CC1 [CBK284909]  87.9%
34. C=CCNC(=O)C1C2CCC3(CC(=O)c4cc(Cl)ccc4O3)C21 (stereo not drawn) [CBK284873]  86.3%
35. O=C(c1cc[nH]n1)N1CCCC(c2cc3ccccc3cn2)C1 (stereo not drawn) [CBK284921]  85.2%
36. Cn1cc(C2CCCCCN2C(=O)c2ccc(F)cc2)cn1 (stereo not drawn) [CBK284913]  76.8%
